The values below come from article PMC6950821, “Bioactivity Evaluation of a Novel Formulated Curcumin” (Nutrients, 2019).

The nature of data set [1]: Dissolution test, USP 41 basket method, 1% SDS medium. Format: physicochemical. Conditions: 37 °C. The protocol:
A dissolution test was conducted by the US Pharmacopeia 41 basket method (apparatus 1) using a dissolution tester (708-DS Dissolution apparatus, Agilent, USA). The samples of 89 mg conventional curcumin (equivalent to 72 mg curcumin) and 2180 mg formulated curcumin (equivalent to 72 mg curcumin) were placed into 900 mL of dissolution medium containing 1% sodium dodecyl sulfate (SDS) at 37 °C ± 0.5 °C, under a stirring speed of 100 ± 2 rpm. A 5 mL sample was withdrawn at each time interval (5, 10, 15, 20, 30, 45, and 60 minutes) and was mixed and filtered through a 0.45-µm pore membrane. Then, 2 mL of filtrate was diluted with mobile phase so that the total volume became 10 mL and subjected to HPLC analysis (Agilent 1260, USA). The HPLC program consisted of a mobile phase of tetrahydrofuran: 0.1% citric acid solution (4:6). The column used was 4.6 mm × 20 cm with 5-µm packing L1. The flow rate was 1 mL/minute, and the injection volume was 20 µL using a 420 nm wavelength detector. The percentages of curcumin dissolved from the conventional curcumin and pellets (formulated curcumin) into the medium were calculated and compared.

The nature of data set [2]: Pharmacokinetic study after oral gavage, curcumin in rat plasma by LC/MS/MS. The class given is in vivo, male Sprague Dawley (SD) rats. Conditions: 500 mg/kg, n = 5. The protocol:
All animal treatment procedures followed the Guide for the Care and Use of Laboratory Animals (National Institutes of Health (NIH) publication, 85–23, revised 1996) as well as the Animal research: Reporting in vivo experiments (ARRIVE) guidelines, and were approved by the Animal Research Committee at National Yang-Ming University, Taipei, Taiwan, under Institutional Animal Care and Use Committees (IACUC) approval no: 990103. All surgeries and experimental procedure were carried out under anesthesia with all efforts to minimize animal suffering. Twelve male Sprague Dawley (SD) rats (270 ± 15 g body weight) were obtained from Bio-Lasco, Taipei, Taiwan. Water was provided ad libitum, regardless of administration route. All animals were acclimatized and quarantined in quarantine room of the Rosetta animal facility for about 1 week, and then transferred to feeding room. The humidity and temperature were well controlled as 30%–70% and 19–25 °C. The light and dark cycle was set as 12 h: 12 h. Food and drinking water were allowed ad libitum during housing. Rats were randomly divided into two groups treated with curcumin and formulated curcumin. […] A 300 μL blood sample was collected from the tail vein into a tube rinsed with heparin at 0, 0.25, 0.5, 1, 1.5, 2, 4, 6 h after oral administration. Plasma was obtained by centrifuging the blood sample at 4000 rpm for 10 minutes at 4 °C. The 10 μL plasma was mixed with 50 μL of the internal standard solution containing 0.1 ng/µL of agomelatine. The samples were vortexed and centrifuged at 13,000 rpm for 5 minutes. The 50 µL of supernatant was transferred to the 1.5 mL tube contained 50 µL solution of 25% acetonitrile and 0.1% acetic acid. After that, 50 μL of the solution was injected onto LC-MS system. Curcumin concentrations in the samples were determined by positive ion electrospray tandem mass spectrometry using multiple reaction monitoring (MRM). Separation of curcumin was conducted on a Cosmosil column (5C18-MS-IIPacked column, 120 Å, 5 µm, 4.6 mm I.D. x 150 mm; NACALAI TESQUE, Inc., Japan) with a mobile phase of acetonitrile-water-formic acid. […] Pharmacokinetic analysis was calculated using a non-compartmental model with the Phoenix WinNonlin® (Version 8.0) software. The area under the drug concentration-time curve (AUC) was used to measure the total amount of curcumin reaching the systemic circulation. The relative oral bioavailability (BA) of curcumin was calculated according to the following equation: […] The pharmacokinetic results were represented as the mean ± SD. Statistical analysis was performed by t test (SPSS version 10.0) to compare the differences between groups. The level of significance was set at p < 0.05.

The subject of data set [3] is Huh7 cells. Briefly: MTT proliferation and viability assay, Huh7. Format: cell-based, human. To be noted: for IC50: Homo sapiens; for cell viability: dose-dependent. The protocol:
(§1) After incubation, the media were removed from the wells.

The test system of data set [4] is Mahlavu cells. As to the kind of experiment: MTT viability assay, Mahlavu. To be noted: 72 h (Figure 6B). Format: cell-based. Here is the method:
(§2) Cells were seeded into a 96-well plate (1500–2000 cells/well) overnight and then treated with curcumin and the formulated curcumin respectively for 0, 24, 48, 72, 96 and 120 h. After treatment, […] 3-(4,5-cimethylthiazol-2-yl)-2,5-diphenyl tetrazolium bromide (MTT) was added to each well and cultured for 2 h at 37 °C. After incubation, the media were removed from the wells. The formazan crystals formed were then solubilized in DMSO at room temperature for 10 minutes, and then the absorbance was measured in a multimode microplate reader at 570 nm.
(Tetrazolium dyes change colour on reduction, which living cells bring about.)

The subject of data set [5] is PLC5 cells. As to the kind of experiment: MTT viability assay, PLC5. Format: cell-based. Conditions: 72 h (Figure 6C). The protocol: as §2
The subject of data set [6] is Hep3B cells. Briefly: Cell cycle analysis (PI, flow cytometry), sub-G1 population. Format: cell-based, human. To be noted: 48 h, 30 μM conventional curcumin, 10 μM sorafenib. Here is the method: After treatment, the cells were collected by trypsinization and fixed in precooled 70% ethanol overnight. The cells were then incubated with PI in the presence of RNase A. The DNA content was analyzed by a FACSCalibur, and the data were analyzed by Flowjo software. The percentage of cells in the sub-G1 was used to indicate the apoptosis rate.
(§3) formulated curcumin on HCC cell lines. (A) Huh7 cells were treated with various concentrations of
(§4) Cell viability was determined
(§5) cells were examined by flow cytometry.
(§6) were quantified using WinMDI 2.8 software.
(§7) compared to the control group.
(§8) μM of conventional curcumin for 48 h.
(§9) Quantification of cleavage-caspase-3
are representative of three independent experiments.
tetrazolium bromide; SEM, standard error of the mean.

Data set [7] has as its system Huh7 cells. Briefly: Annexin V and PI double staining by flow cytometry. Conditions: Huh7, 10–60 μM, 24 h, dose-dependent. Format: cell-based, human. The protocol: The Huh7 were incubated with various concentrations of conventional and formulated curcumin for 24 h. Annexin V/PI staining was performed to quantify cell apoptosis using an Annexin V-fluorescein isothiocyanate (FITC) Apoptosis Detection Kit (BioVision, Inc., Milpitas, CA, USA) according to the manufacturer’s protocol. Annexin V-FITC was then added followed by incubation for 15 minutes in the dark in a 100 µL cell suspension. PI was then spiked into 400 µL Annexin V binding buffer and added immediately to the cell suspension, and subsequently analyzed on a FACScan flow cytometer (BD Biosciences, USA).
On the technique in general: Flow cytometry measures light scatter and fluorescence of single cells or particles in a stream.

Data set [8] relates to caspase-3. Briefly: Western blot of cleaved caspase-3, Huh7. Conditions: dose-dependent. Format: cell-based, human. The protocol:
(§10) The cells were incubated with various treatment (conventional and formulated curcumin or combination of sorafenib and conventional and formulated curcumin), and then collected for western blot. Aliquots of cell lysates containing 20–50 μg of protein were separated by SDS-polyacrylamide gel electrophoresis (SDS-PAGE), transferred onto a polyvinylidene difluoride (PVDF) membrane and detected using specific primary and secondary antibodies. The protein bands were visualized by an enhanced chemiluminescence (ECL) detection kit (Immobilon^TM western, Millipore). The membranes were reprobed for β-actin as a loading control. All western blots were carried out at least three times for each experiment. The data were normalized to β-actin. The following primary antibodies were used: anti-extracellular regulated protein kinases (ERK), anti-caspase-3, anti-poly (ADP-ribose) polymerase (PARP) (all from Cell Signaling Technology) and anti-aurora kinase A (AURKA) (BD Biosciences). All antibodies were used at a 1:1000 dilution.
Background: Immunoblotting shows a protein as a band on a membrane.

Data set [9] has as its system Huh7 cells. Briefly: JC-1 mitochondrial membrane potential assay. The class given is cell-based, human. Conditions: Huh7, JC-1, 10, 30, and 60 µM, concentration-dependent. Here is the method: We employed 5, 5’, 6, 6’-tetrachloro-l, 1’, 3, 3’-tetraethylbenzimidazolcarbocyanine iodide (JC-1), which was obtained from Cayman Chemical Co., to analyze the mitochondrial membrane potential. The cells were seeded in 96-well black plates at a density of 7000 cells/well and cultured overnight. After treatment, JC-1 staining solution was added to each well and incubated at 37 °C for 15–30 minutes in the dark. The plates were obtained by centrifuged at 400 × g at room temperature for 5 minutes, and the supernatant was discarded. Then, JC-1 assay buffer was added to each well, followed by centrifugation at 400 × g at room temperature for 5 minutes, after which the supernatant was discarded. Finally, JC-1 assay buffer was added again to each well for fluorescent analysis using a fluorescent plate reader.

Data set [10] concerns ERK. As to the kind of experiment: Western blot of ERK phosphorylation, Huh7. Conditions: Huh7, 10–60 μM, 48 h. Format: cell-based, human. Here is the method: as §10
In data set [11] the test system is Aurora-A. Briefly: Western blot of Aurora-A, Huh7. Format: cell-based, human. Conditions: Huh7, 0–60 μM, 48 h. The protocol: as §10
Data set [12] concerns caspase-3. As to the kind of experiment: Western blot of cleaved caspase-3, Hep3B. The class given is cell-based, human. Conditions: 10 μM sorafenib, 30 μM conventional curcumin, 48 h. Here is the method: as §10, §3, §4, §5, §6, §7, §8, §9
(§11) are representative of three independent experiments. […]

In data set [13] the test system is LC3-II. As to the kind of experiment: Western blot of LC3-II, Hep3B. Format: cell-based, human. To be noted: 10 μM sorafenib, 30 μM conventional curcumin, 48 h. Here is the method: as §10, §3, §4, §5, §6, §7, §8, §9, §11
Data set [14] has as its system Hep3B cells. As to the kind of experiment: MTT viability assay, Hep3B. The class given is cell-based, human. To be noted: dose-dependent. The protocol: as §1
Supplementary Figure 6. Effect of sorafenib with or without curcumin/formulated curcumin on Mahlavu and Hep3B cell viability. (A) Mahlavu and (B) Hep3B cells were treated with […]
(conventional)/formulated curcumin for 48 hours. Percentage of inhibition on Mahlavu and Hep3B cells was measured by MTT assay. Data are presented as means ± SEM. Results are representative of three independent experiments.

The conditions of data set [15]: rat plasma, oral, cited from earlier work.
The conditions of data set [16]: humans; 20 mg of piperine given concomitantly with 2 g of curcumin; cited from earlier work.
For data set [17] the following is noted: rats; piperine given concomitantly with curcumin; cited from earlier work.
The mark [18] stands for this setting: 50 mg/kg, n = 5, ref [6] of supplement.
[19] abbreviates: 340 mg/kg, n = 3, ref [5] of supplement.
The mark [20] stands for this setting: 500 mg/kg, n = 6, ref [7] of supplement.

Like-named read-outs stand apart in the source and are kept apart here.

As to `COc1cc(/C=C/C(=O)CC(=O)/C=C/c2ccc(O)c(OC)c2)ccc1O` [conventional curcumin, curcumin], the dissolution rate in data set [1] (0 minutes) was determined as 0.00%; in data set [1] (5 minutes), 9.80%; in data set [1] (10 minutes), 13.60%; in data set [1] (15 minutes) it was 14.05%; in data set [1] (20 minutes), 17.28%; in data set [1] (30 minutes) it was 19.41%. The same molecule came in with a dissolution rate in [1] (45 minutes) of 24.06%. For the same molecule, in data set [2], the AUC0-t/Dose was found to be 0.0022 ± 0.0024. The AUC0-t in [2] (male, Sprague Dawley) was 1.1 ± 1.2 ng·h/mL; in [15] (setting [18]), 8.76 ng·h/mL; in data set [15] (setting [19]), 80 ng·h/mL; in [15] (setting [20]) it was 60 ng·h/mL. Also, the Cmax (in general, the peak of the concentration-time curve) in [2] (male, Sprague Dawley) is 0.704 ± 0.272 ng/mL; in data set [15] (setting [18]) it was 4.07 ± 0.56 ng/mL; in data set [15] (setting [19]) it was 2.39 ± 1.66 ng/mL; in data set [15] (setting [20]) it was 60 ± 10 ng/mL. Besides, the Tmax (usually the time at which the peak concentration occurs) in data set [2] (male, Sprague Dawley) is 75 ± 49.8 min; in data set [15] (setting [18]) it was 30 min; in data set [15] (setting [19]), 30 min; in data set [15] (setting [20]), 42 ± 5.4 min. The IC50 (usually the concentration at which inhibition is half-maximal) in data set [3] (Huh-7, 24 h, 24 h (Supplementary Figure S4)) is roughly 90 µM; in data set [3] (Huh-7, 48 h, 48 h (Supplementary Figure S4)), roughly 90 µM; in data set [3] (Huh-7, 72 h, 72 h (Figure 6A)), 53.3 µM; in data set [3] (Huh-7, 72 h, 72 h (Supplementary Figure S4)), roughly 60 µM; in [3] (Huh-7, 96 h, 96 h (Supplementary Figure S4)), roughly 45 µM; in data set [3] (Huh-7, 120 h, 120 h (Supplementary Figure S4)), roughly 30 µM. For the same molecule, the IC50 is 35.4 µM in data set [4] and 82.5 µM in [5]. For the same molecule, the cell viability result in data set [3] and in data set [14] was “inhibited cell viability” in each case. Further, the “apoptosis rate (sub-G1 population)” value in data set [6] amounted to 13.5%. In addition, the “percentage of cells undergoing early apoptosis (annexin V+/PI–) and late apoptosis (annexin V+/PI+)” value in [7] is listed as “increased”. In addition, the “caspase-3 activity (cleaved form)” value in data set [8] is given as “increased”. The “mitochondrial membrane potential (ΔΨm)” value in data set [9] is “significantly induced mitochondrial membrane potential breakdown”. In addition, the ERK phosphorylation entry in data set [10] was “down-regulation”. In addition, the “level of Aurora-A” value in [11] was “significant decrease”. For the same molecule, the “levels of cleaved caspase-3 proteins” value in [12] is given as “increased”. Further, the LC3-II entry in data set [13] was “significantly induced accumulation”.

With `O=C(/C=C/C=C/c1ccc2c(c1)OCO2)N1CCCCC1` [piperine], the “increase of serum curcumin” value in data set [16] is 20 times; in data set [17] it was 1.56 times.

Turning to `CNC(=O)c1cc(Oc2ccc(NC(=O)Nc3ccc(Cl)c(C(F)(F)F)c3)cc2)ccn1` [sorafenib], the cell viability entry in data set [3] and in data set [14] was “inhibited cell viability” each time. Besides, in [6], the “apoptosis rate (sub-G1 population)” value was 10.9%. Besides, the “levels of cleaved caspase-3 proteins” value in [12] is reported as “increased”.
